For data set [1] the following is noted: rat, in vivo.
Data set [2] relates to human placental aromatase. The conditions noted are these: cited from earlier work.
In data set [3] the test system is human placental aromatase. Put plainly: in vitro assay with human placental aromatase. It counts as biochemical. The conditions noted are these: in vitro assays. On the procedure: 5α-DHNET was previously found to be a very weak in vitro aromatase inhibitor (Y. Osawa, Y. Osawa, C. Yarborough & L. Borzynski, Biochem Soc. Transactions, 656-659 (1983)), requiring a 50 μM concentration for a partial inhibition of human placental aromatase in vitro.

Data set [4] concerns NMU-induced breast carcinomas of BUF/N rats. The experiment in a line: preventive effect on incidence of NMU-induced breast carcinoma, first protocol. It counts as in vivo, rat. On the procedure:
The animal model for human mammary carcinomas developed by Gullino et al. (P. M. Gullino, H. M. Pettigrew, and F. H. Grantham, J. Natl. Cancer Inst., 54, 401-414 (1975)) was used for this evaluation of 5α-DHNET.N-Nitrosomethylurea (NMU), wet with 3% acetic acid, was dissolved in distilled water (10 mg/ml) and given in three intravenous injections at a dose of 50 mg/kg body weight to BUF/N inbred female rats of 50 days of age on the first injection. The second injection was 4 weeks and the third injection was 8 weeks after the initial administration. The onset of tumors was monitored by daily visual inspection and by palpation of the mammary regions three times a week. The increase in tumor size was monitored by vernier caliper measurements of the subcutaneous mass. One-half the average of the longest and shortest tumor diameters was taken as the value of r in the formula 4/3 πr^3 used to estimate tumor volume. 5α-DHNET in sesame oil was given i.p. daily at a dose of 50 mg/kg body weight/day for 3 weeks to BUF/N female rats having at least one tumor, 2 cm or larger. The number and size of the rumors were monitored on 12 treated and 13 vehicle-only control animals. The mean initial volume of the tumors was 5.10 and 5.53 ml for the control and treated group, respectively. While the tumors in the control group grew very rapidly, growth arrest was clearly observed in 75% (9/12) of the treated group. The death rate was lower in the treated group (3/12 in 4 weeks) than in the control (5/13 in 3 weeks). […] Averaged relative tumor volume is compared in FIG. 7. This also indicates the suppression of tumor growth by the 5α-DHNET treatment. While 24 new tumors developed in 9 control rats in 3 weeks, only 7 developed in 11 treated rats.
The preventive effect of 5α-DHNET to lower the incidence of breast carcinoma was assessed by use of the same animal model as in Example 3 but by modification of the administration protocol. The vehicle-only control was prepared as described in Example 3. Oophorectomy was carried out at the 4th week. 5α-DHNET at a dose of 50 mg/kg body weight/day was given i.p. daily for one week starting at the 4th week. The onset of tumors, their number and location in each animal were recorded daily. The results are given in FIGS. 9 and 10 and in Table 2. The control group developed tumors in 100% (16/16) of the animals by the 98th day after the first NMU injection. At this point tumor incidence for the 5α-DHNET treated and oophorectomized groups was 13% (2/16) and 38% (6/16), respectively. […] At the 180th day the death rate for the 5α-DHNET treated and oophorectomized group was 25% and 31%, respectively, compared to 69% for the control group. The mean latent period of tumor development was 72, 101, and 116 days for the control, OVX, and 5α-DHNET group, respectively.

Data set [5] deals with estrus cycle of BUF/N inbred female rats. Put plainly: effect on the rat estrus cycle. It counts as in vivo. On the procedure:
BUF/N inbred female rats (50-80 days old) showing regular 4-day estrus cycles were selected by a daily vaginal smear test. A fine powder of the steroid sample was suspended in sesame oil (30 mg/ml) and injected subcutaneously on the proestrus day at a single dose of 50 mg/kg body weight. Vaginal smears were examined daily until normal estrus returned for at least three cycles. The results from the single injection of 5α-DHNET are given in FIG. 1 and those for 6β-bromoandrostenedione are given in FIG. 2 for comparison.

Data set [6] concerns NMU-induced breast carcinomas of BUF/N rats. The experiment in a line: effect on breast tumor incidence, protocol III. It counts as in vivo, rat. On the procedure:
The protocol was further modified to evaluate the generality of the effect of 5α-DHNET on breast carcinomas. […] Oophorectomy was also carried out at 3 weeks after the NMU injection. After 37 weeks of monitoring, the tumor incidence was 87%, 38%, and 19% for the control, 5α-DHNET,and OVX group, respectively. The average number of tumors per tumor carrying animal was 2.8, 1.5 and 1.0 for the central, 5α-DHNET, and OVX group, respectively.

The next data set has as its system SD rat (SPF). The experiment in a line: minimum lethal dose in SD rat. It counts as in vivo. As for the experimental part: For example, the minimum lethal dose of 5α-DHNET for SD rat (SPF) is greater than 5,000 mg/kg.

The source of these data is patent US4997827A, “Compositions containing 5-α-dihydro-19-norethisterone and derivatives thereof for in vivo inhibition of aromatase” (Medical Foundation of Buffalo, Inc., priority 1989, dated 1991).

Each structure is given as a SMILES string.

Turning to `C#C[C@]1(O)CC[C@H]2[C@@H]3CC[C@H]4CC(=O)CC[C@@H]4[C@H]3CC[C@@]21C` [5α-DHNET, 5α-dihydro-19-norethisterone], the “body weight compared to control rats” value in data set [1] is “did not show any significant difference of body weight from the control rats”. For the same molecule, the “concentration for inhibition of human placental aromatase in vitro” value in data set [2] (in vitro, for 5α-DHNET a partial inhibition) is 50 µM. Also, the “in vitro aromatase inhibitory activity” value in data set [2] (previous in vitro studies) is “essentially inactive”. In addition, in data set [3], the “potency as aromatase inhibitor relative to 6α- and 6β-bromoandrostenedione” value is “thousand-fold less potent”. Besides, the tumor incidence in data set [4] (98th day after first NMU injection, 50 mg/kg/day i.p. one week from 4th week, 2/16) is 13%; in data set [6] (after 37 weeks, treatment 3 weeks after single NMU dose), 38%. In addition, the death rate in data set [4] (180th day after first NMU injection, 4/16) came to 25%. Also, in data set [4] (180th day after first NMU injection, 8/16), the “% Tumor Incidence” value came to 50%. The “effect on incidence of breast carcinoma and death rate” value in data set [4] (Examples 4-6, given at different times) is “significantly lower the incidence of breast carcinoma and the death rate as effectively as complete oophorectomy”. Moreover, the “Average No. of tumors per tumor-carrying rat” value in data set [4] (first protocol) amounted to 1.8. Besides, in data set [4] (first protocol), the “Mean Latent Period of tumor development” value is given as 116 days. Further, the “animals with cessation of estrus cycles / animals tested” value in data set [5] (single s.c. dose 50 mg/kg body weight) is on record as 4/4. Further, the “effect on the estrus cycle” value in data set [5] (single s.c. dose 50 mg/kg body weight on proestrus day) is reported as “cessation of the estrus cycles for at least four cycles”. The “average number of tumors per tumor carrying animal” value in data set [6] (protocol III) came to 1.5. Moreover, the minimum lethal dose entry with SD rat (SPF) was “greater than 5,000 mg/kg”.
